Where a name gives a salt, the structure may show the parent alone.
What was measured:
Adrenergic β2 = biological target: T1, Adrenergic β2 (Homo sapiens, UniProt P07550); assay: Adrenergic β2 mediated cAMP production in H292 cells (AlphaScreen); format: cell-based
T1 construct: Adherent H292 cells were removed from tissue culture flasks; endogenous in cells; host or cells: H292 cells
Method: Adrenergic β2 mediated cAMP production
H292 cells were grown in 225 cm2 flasks incubator at 37° C., 5% CO2 in RPMI medium containing, 10% (v/v) FBS (foetal bovine serum) and 2 mM L-glutamine.
Adherent H292 cells were removed from tissue culture flasks by treatment with Accutase™ cell detachment solution for 15 minutes. Flasks were incubated for 15 minutes in a humidified incubator at 37° C., 5% CO2. Detached cells were re-suspended in RPMI media (containing 10% (v/v) FBS and 2 mM L-glutamine) at 0.05×10^6 cells per mL. 5000 cells in 100 μL were added to each well of a tissue-culture-treated 96-well plate and the cells incubated overnight in a humidified incubator at 37° C., 5% CO2. The culture media was removed and cells were washed twice with 100 μL assay buffer and replaced with 50 μL assay buffer (HBSS solution containing 10 mM HEPES pH7.4 and 5 mM glucose). […]
The concentration of cAMP (cyclic adenosine monophosphate) in the cell lysate was determined using AlphaScreen™ methodology. […] The AlphaScreen™ signal was measured using an EnVision spectrophotometer (Perkin-Elmer Inc.) with the recommended manufacturer's settings. cAMP concentrations were determined by reference to a calibration curve determined in the same experiment using standard cAMP concentrations. […] Intrinsic Activity was expressed as a fraction relative to the maximum activity determined for formoterol in each experiment. […]

[1] = system: histamine-induced bronchoconstriction; assay: Lung function in anaesthetized guinea-pigs, histamine challenge; format: in vivo, Dunkin-Hartley guinea pig; conditions: for inhibition of histamine-induced bronchoconstriction: histamine 5 μg/kg i.v.; for increase in bronchoconstriction: histamine 5 μg/kg, vehicle 1100±161%
Method: Evaluation of Lung Function in Anaesthetized Guinea-Pigs
Male Dunkin-Hartley guinea pigs (300-600 g) were weighed and dosed with vehicle (0.05M phosphate, 0.1% Tween 80, 0.6% saline, pH 6) or compound via the intratracheal route under recoverable gaseous anaesthesia (5% halothane in oxygen). Animals were dosed with compound or vehicle two hours prior to the administration of histamine or methacholine.
Guinea pigs were anaesthetized with pentobarbitone (1 mL/kg of 60 mg/mL solution i.p.) approximately 30 minutes prior to the first bronchoconstrictor administration. The trachea was cannulated and the animal ventilated using a constant volume respiratory pump (Harvard Rodent Ventilator model 683) at a rate of 60 breath/min and a tidal volume of 5 ml/kg. A jugular vein was cannulated for the administration of histamine, methacholine or maintenance anaesthetic (0.1 mL of pentobarbitone solution, 60 mg/mL, as required).
The animals were transferred to a Flexivent System (SCIREQ, Montreal, Canada) in order to measure airway resistance. The animals were ventilated (quasi-sinusoidal ventilation pattern) at 60 breaths/min at a tidal volume of 5 mL/kg. A positive end expiratory pressure of 2-3 cmH2O was applied. Respiratory resistance was measured using the Flexivent “snapshot” facility (1 second duration, 1 Hz frequency). Once stable baseline resistance value had been obtained the animals were given histamine or methacholine in ascending doses (0.5, 1, 2, 3 and 5 μg/kg, i.v.) at approximately 4-minute intervals via the jugular catheter. After each administration of bronchoconstrictor the peak resistance value was recorded. Guinea pigs were euthanized with approximately 1.0 mL pentobarbitone sodium (Euthatal) intravenously after the completion of the lung function measurements. Percentage bronchoprotection produced by a compound was calculated at each dose of brochoconstrictor as follows:
Where % change Rveh is the mean of the maximum percentage change in airway resistance in the vehicle treated group. The results reported were measured after 5 μg/kg histamine or methacholine and were expressed as percentage bronchoprotection (mean ±s.e.mean).

T1 sequence (P07550 whole entry): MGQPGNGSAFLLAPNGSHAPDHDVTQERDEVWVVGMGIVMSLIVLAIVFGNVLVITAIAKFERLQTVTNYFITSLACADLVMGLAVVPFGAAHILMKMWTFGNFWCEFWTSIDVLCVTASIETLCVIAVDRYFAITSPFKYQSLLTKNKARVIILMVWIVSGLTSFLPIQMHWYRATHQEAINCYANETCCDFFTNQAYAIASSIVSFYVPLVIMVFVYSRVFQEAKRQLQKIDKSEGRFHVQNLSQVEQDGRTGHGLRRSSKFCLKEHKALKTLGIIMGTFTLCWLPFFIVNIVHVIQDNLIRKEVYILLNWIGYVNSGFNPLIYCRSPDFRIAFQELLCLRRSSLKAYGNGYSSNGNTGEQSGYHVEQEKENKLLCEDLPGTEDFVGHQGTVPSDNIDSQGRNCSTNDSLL

Compound: CCN(CC)CCN(CCNCCc1ccc(O)c2[nH]c(=O)sc12)C(=O)CCOCCc1cccc2ccccc12 [Compound A, N-[2-(Diethylamino)ethyl]-N-(2-{[2-(4-hydroxy-2-oxo-2,3-dihydro-1,3-benzothiazol-7-yl)ethyl]amino}ethyl)-3-[2-(1-naphthyl)ethoxy]propanamide dihydrobromide]
- EC50 (Adrenergic β2; H292 cells, cAMP, 300 μM rolipram, read-out: β2 pEC50 (converted)): 6.31 nM
- β2 Int Act (Adrenergic β2; Intrinsic Activity as fraction relative to maximum activity of formoterol): 0.8
- inhibition of histamine-induced bronchoconstriction ([1]; compound A 1 μg/kg intratracheal 2 h before): 49%
- increase in bronchoconstriction ([1]; compound A 1 μg/kg intratracheal): 544±60%
- inhibition of histamine-induced bronchoconstriction ([1]; compound A 27 μg/kg intratracheal 2 h before): 87%
- increase in bronchoconstriction ([1]; compound A 27 μg/kg intratracheal): 140±36%

Source: patent US20080242649A1, “New Combination 665” (priority 2007, published 2008)
